Test systems include CCRF-CEM leukemia; HT29 colon; U251 CNS; MALME-3M melanoma; CAKI-1 renal; NCI-H460 lung; A549 NSCLC; ACHN renal; SF-295 CNS; EKVX NSCLC.
Common to all, as to test: NCI tumour cell line growth inhibition, 48 h

Molecules are shown by their SMILES.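 Values below derive from 48-hour exposures of cells grown in 96-well plates, with endpoints linearly interpolated between the two concentrations bracketing the appropriate inhibition level. GI50 marks 50% less growth. TGI is the concentration that stops growth completely.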

As to `COC(=O)COc1ccccc1/C=C1\N=C(c2ccccc2)N(c2cc(C(F)(F)F)ccc2Cl)C1=O`, the GI50 was 27.6 µM in the assay on CCRF-CEM leukemia; 73.2 µM with HT29 colon; 55.9 µM in the assay with U251 CNS; 27.5 µM in the assay on MALME-3M melanoma; 79 µM in the assay on CAKI-1 renal; 59.6 µM in the assay on NCI-H460 lung. In addition, the GI50 in the assay on A549 NSCLC is 97.4 µM; in the assay with ACHN renal it was 57 µM; in the assay with SF-295 CNS it was > 100 µM; in the assay on EKVX NSCLC it was > 100 µM. Also, the TGI in the assay on CCRF-CEM leukemia is 74.4 µM; with HT29 colon it was > 100 µM; with U251 CNS, > 100 µM; in the assay on MALME-3M melanoma it was 92.5 µM; with CAKI-1 renal, > 100 µM; in the assay on NCI-H460 lung it was > 100 µM. In addition, the TGI with A549 NSCLC, in the assay with ACHN renal, in the assay with SF-295 CNS and in the assay with EKVX NSCLC was > 100 µM in each case.
Regarding `O=C1c2ccccc2C(=O)N1CCn1ccc(NC(c2ccccc2)(c2ccccc2)c2ccccc2)nc1=O`, the TGI in the assay with CCRF-CEM leukemia was 59.3 µM; in the assay on HT29 colon, 30.5 µM; in the assay on U251 CNS, 32.3 µM; in the assay with MALME-3M melanoma it was 43.2 µM; with CAKI-1 renal it was > 100 µM; in the assay on NCI-H460 lung, 65.5 µM. The TGI in the assay on A549 NSCLC is > 100 µM; in the assay on ACHN renal, 92.7 µM; with SF-295 CNS it was 28.8 µM; in the assay on EKVX NSCLC, > 100 µM.
For `CSC1=Nc2c(c(C)c(C)n2COC(CO)CO)C2=NC(=O)C(C)N12` (stereo not given), the GI50 in the assay with CCRF-CEM leukemia, in the assay with HT29 colon, in the assay on U251 CNS, in the assay on MALME-3M melanoma, in the assay on CAKI-1 renal and in the assay with NCI-H460 lung was > 100 µM in each case. In addition, the GI50 with A549 NSCLC, in the assay with ACHN renal, in the assay on SF-295 CNS and with EKVX NSCLC was > 100 µM each time. Further, the TGI with CCRF-CEM leukemia, in the assay on HT29 colon, with U251 CNS, in the assay on MALME-3M melanoma, in the assay on CAKI-1 renal and with NCI-H460 lung was > 100 µM throughout. Further, the TGI in the assay with A549 NSCLC, with ACHN renal, in the assay on SF-295 CNS and in the assay with EKVX NSCLC was > 100 µM throughout.
Turning to `CC(=O)OC1COC(Oc2c(C)c3c4c(c2O)[C@@H](C)CC[C@@H]4[C@@H](C)C[C@H]3C=C(C)C)C(O)C1OC(C)=O` (stereo not given in full), the GI50 in the assay on CCRF-CEM leukemia is 12 µM; with HT29 colon it was 25.6 µM; with U251 CNS, 10.4 µM; in the assay with MALME-3M melanoma, 15.2 µM; with CAKI-1 renal, 12.6 µM; in the assay on NCI-H460 lung, 8.36 µM. In addition, the GI50 in the assay on A549 NSCLC was 16 µM; in the assay with ACHN renal it was 11 µM; with SF-295 CNS, 17.1 µM; in the assay with EKVX NSCLC, 22.6 µM. Moreover, the TGI with CCRF-CEM leukemia is 33.4 µM; in the assay on HT29 colon, 74.4 µM; with U251 CNS, 22.5 µM; in the assay with MALME-3M melanoma it was 32.3 µM; with CAKI-1 renal, 26.3 µM; in the assay with NCI-H460 lung it was > 100 µM. In addition, the TGI in the assay with A549 NSCLC is 32.8 µM; in the assay with ACHN renal, 22.9 µM; in the assay with SF-295 CNS, 33.2 µM; in the assay with EKVX NSCLC, 45.5 µM.
For the compound `CCOC(=O)c1cnc2c(ccc3[nH]n(C)nc32)c1=O`, the TGI in the assay with CCRF-CEM leukemia was > 100 µM; in the assay with HT29 colon it was > 100 µM; in the assay with U251 CNS it was 68.9 µM; in the assay with MALME-3M melanoma, > 100 µM; in the assay with CAKI-1 renal it was > 100 µM; in the assay on NCI-H460 lung, > 100 µM. Moreover, the TGI in the assay with A549 NSCLC, in the assay with ACHN renal, in the assay on SF-295 CNS and in the assay with EKVX NSCLC was > 100 µM in each case.
As to `S=C(Nc1ccc(Cl)cc1)Nc1ccc(-c2nc3ccccc3s2)cc1`, the GI50 in the assay on CCRF-CEM leukemia was 15.6 µM; with HT29 colon, 17.2 µM; in the assay on U251 CNS, 19 µM; in the assay with MALME-3M melanoma it was 15.6 µM; in the assay with CAKI-1 renal, 10.8 µM; in the assay on NCI-H460 lung, 13.9 µM. In addition, the GI50 in the assay on A549 NSCLC is 14.9 µM; in the assay with ACHN renal, 15.4 µM; in the assay on SF-295 CNS it was 16.1 µM; with EKVX NSCLC, 15.1 µM. Also, the TGI is 54.8 µM in the assay with CCRF-CEM leukemia; 39.2 µM in the assay on HT29 colon; > 100 µM in the assay with U251 CNS; 46.4 µM in the assay on MALME-3M melanoma; 28 µM in the assay with CAKI-1 renal; 33.4 µM in the assay with NCI-H460 lung. The TGI was 32.2 µM with A549 NSCLC, 45.4 µM in the assay with ACHN renal, 40.6 µM in the assay on SF-295 CNS and 42.9 µM in the assay with EKVX NSCLC.
Consider `CC1(C)COC(C2(C)C(=O)C=C(c3ccccc3)c3ccccc32)=N1` (stereo not given), for which the TGI with CCRF-CEM leukemia is > 100 µM; in the assay with HT29 colon it was 99 µM; in the assay on U251 CNS, > 100 µM; with MALME-3M melanoma, 63.8 µM; with CAKI-1 renal it was > 100 µM; in the assay with NCI-H460 lung, > 100 µM. In addition, the TGI with A549 NSCLC, with ACHN renal, in the assay on SF-295 CNS and in the assay with EKVX NSCLC was > 100 µM in each case.
Consider `CCN(CC)CCCN1CCc2c([nH]c3ccccc23)C1c1cccnc1` (stereo not given), for which the TGI with CCRF-CEM leukemia, in the assay with HT29 colon, in the assay with U251 CNS, in the assay on MALME-3M melanoma, with CAKI-1 renal and with NCI-H460 lung was > 100 µM throughout. In addition, the TGI in the assay on A549 NSCLC, with ACHN renal, in the assay on SF-295 CNS and in the assay with EKVX NSCLC was > 100 µM throughout.
With `O=C(Nc1ccc2ncccc2c1)Nc1ccc2ncccc2c1`, the TGI in the assay on CCRF-CEM leukemia, in the assay on HT29 colon, in the assay with U251 CNS, in the assay with MALME-3M melanoma, with CAKI-1 renal and in the assay on NCI-H460 lung was > 100 µM each time. The TGI in the assay with A549 NSCLC, in the assay with ACHN renal, with SF-295 CNS and with EKVX NSCLC was > 100 µM in each case.
For `CC(C)(C)NNC(=O)CCn1[nH]c(=O)c(Cl)c(Cl)c1=O`, the TGI with CCRF-CEM leukemia, in the assay with HT29 colon, with U251 CNS, in the assay with MALME-3M melanoma, in the assay on CAKI-1 renal and in the assay on NCI-H460 lung was > 100 µM in each case. Moreover, the TGI with A549 NSCLC, in the assay with ACHN renal, in the assay with SF-295 CNS and with EKVX NSCLC was > 100 µM in each case.
Consider `O=[N+]([O-])c1ccc2[nH]c(=S)[nH]c(=S)c2c1`, for which the TGI with CCRF-CEM leukemia, in the assay on HT29 colon, with U251 CNS, in the assay on MALME-3M melanoma, in the assay on CAKI-1 renal and in the assay on NCI-H460 lung was > 100 µM throughout. The TGI in the assay with A549 NSCLC, in the assay with ACHN renal, in the assay with SF-295 CNS and in the assay with EKVX NSCLC was > 100 µM throughout.

The values are drawn from PubChem BioAssay (NCI).
